Measured values as given in patent US10543189B2, “2-acetylnaphtho[2,3-b]furan -4,9-dione for use on treating cancer” (Boston Biomedical, Inc., priority 2013, dated 2020).
Where “and” joins values, the source holds several entries; their conditions need not be identical. Identical values can stand only once.

Experiments:
[1] = Safety of highly pure Compound 1 in animal experiments; format: in vivo; conditions: highly pure Compound 1, mice
Method: For example, FIG. 13 of WO 2011/116398 and WO 2011/116399 illustrates the toxicity observed with a composition with about 90% purity for Compound 1, while FIG. 14 of WO 2011/116398 and WO 2011/116399 illustrates that the highly pure compositions having about 95% or greater purity for Compound 1 are safe and effective. In a Phase 1 study, the dose of Compound 1 was escalated from 20 mg to 2000 mg/day, and a maximum tolerated dose (MTD) not reached. […] The clinical safety profile of the substantially pure compositions of Compound 1 is among the best for oncology drugs in history.

β-catenin [2] = experiment: β-catenin protein levels in cancer cell lines; format: cell-based; conditions: in vitro within cancer cell lines
Source text: Understanding the clinical relevance of the cancer stemness markers and identifying their predictive response to the Compound of the Invention is used herein to assist clinical development by selecting patients that will most likely to derive clinical benefit. In some embodiments, the methods provided herein use one or more well-known cancer stemness marker(s), such as, for example, the expression of p-STAT3 and/or other cancer stem cell related proteins such as β-catenin and NANOG. All these proteins can be easily detected using any of a variety of art-recognized techniques. In some embodiments, the cancer sternness marker is detected with immunohistochemistry with antibodies. Using the archival tissue samples collected from the phase I trial with the Compound of the Invention, the patient response to the Compound of the Invention was analyzed based on biomarker status. […] A significant improvement in survival was detected for patients with nuclear β-Catenin localization compared with patients having β-catenin localized to the cell membrane, HR=0.043, p value <0.001. As further evidence, in an in vitro study screening a panel of cancer cells, the cell lines with nuclear β-Catenin show a lower IC50 for the Compound of the Invention. […] Thus, STAT3 activation is involved in nuclear β-catenin regulation. […]

β-catenin [3] = experiment: Immunohistochemistry of CRC patient tumor tissue for β-catenin; format: in vivo, human; conditions: FIG. 4A
Method: (§1) CRC patient's archival tumor tissue samples were analyzed through immunohistochemistry (IHC) using labeled antibodies against β-catenin. […] For instance, close to 40% of the patients with high nuclear β-catenin levels before treatment survived longer than 100 weeks whereas none of those with high levels of membranous β-catenin survived beyond 25 weeks. This further confirms that the Compound of the Invention disrupts or somehow modulates the β-catenin function, and that the β-catenin pathway is implicated in colorectal cancers.

[4] = Phase I dose escalation trial: pharmacokinetic profile; format: in vivo, human
colorectal cancer (CRC) = experiment: Survival of treated CRC patients by biomarker status or exposure; format: in vivo, human
Source text: FIG. 6A depicts the relationship between Progression Free Survival (PFS) and exposure of a Compound of the Invention in colorectal cancer (CRC) patients. […] FIG. 6B depicts the overall survival (OS) in evaluable CRC patients. OS of evaluable CRC patients treated with a Compound of the Invention (defined as ≥4 weeks of Compound of the Invention, 80% compliance) compared with historical controls [Cetuximab for the treatment of colorectal cancer, 2007, N. Engl. J. Med. 357 2040-2048]. FIG. 6C depicts PFS in evaluable CRC patients. PFS of evaluable CRC patients treated with a Compound of the Invention (defined as ≥4 weeks of Compound of the Invention, 80% compliance) compared historical controls (Open-Label Phase III Trial of Panitumumab Plus Best Supportive Care Compared with Best Supportive Care Alone in Patients with Chemotherapy-Refractory Metastatic Colorectal Cancer, 2007, J. Clin. Onc. 25: 1658-1665].
Understanding the clinical relevance of the cancer stemness markers and identifying their predictive response to the Compound of the Invention is used herein to assist clinical development by selecting patients that will most likely to derive clinical benefit. In some embodiments, the methods provided herein use one or more well-known cancer stemness marker(s), such as, for example, the expression of p-STAT3 and/or other cancer stem cell related proteins such as β-catenin and NANOG. All these proteins can be easily detected using any of a variety of art-recognized techniques. In some embodiments, the cancer sternness marker is detected with immunohistochemistry with antibodies. Using the archival tissue samples collected from the phase I trial with the Compound of the Invention, the patient response to the Compound of the Invention was analyzed based on biomarker status. […] A significant improvement in survival was detected for patients with nuclear β-Catenin localization compared with patients having β-catenin localized to the cell membrane, HR=0.043, p value <0.001. As further evidence, in an in vitro study screening a panel of cancer cells, the cell lines with nuclear β-Catenin show a lower IC50 for the Compound of the Invention. […] Thus, STAT3 activation is involved in nuclear β-catenin regulation. In addition, β-catenin status is a biomarker for predicting responsiveness of CRC patients to the Compound of the Invention.
CRC patient's archival tumor tissue samples were analyzed through immunohistochemistry (IHC) using labeled antibodies against phosphorylated STAT3 (p-STAT3). […] For instance, 40% of the patients with high p-STAT3 levels before treatment survived longer than 100 weeks whereas only 10% of those with low or no p-STAT3 levels before treatment survived beyond 100 weeks. This further confirms that the Compound of the Invention downregulates that STAT3 pathway, and that the STAT3 pathway is implicated in colorectal cancers.
as §1

[5] = Pharmacokinetics when taken fasting, with milk or with food; format: in vivo, human; conditions: for Tmax: human, in vivo, oral
Method: In yet another suitable dosing regimen, Compound 1 was administered with a fluid, e.g., a milk or water, with empty stomach which improves pharmacokinetical exposure (Table 12). Counterintuitively, milk helped patients with gastrointestinal adverse effects.
In yet another suitable dosing regimen, Compound 1 was administered with food which delayed the Tmax (Table 13).

CD44^high cells (FaDu) = experiment: CD44high sphere growth; format: cell-based; conditions: FACS-isolated from FaDu, sphere culture, five days of treatment, FIG. 5
Method: CD44^high cells were isolated by FACS (FaDu) and were cultured in the absence of attachment and serum for 5 days to form primary spheres. Primary spheres were then dissociated in Accumax (eBioscience, San Diego, Calif.) to single cells, and were cultured as above for 72 hours before the addition of the indicated concentrations of therapeutic agents. After five days of treatment, representative sphere images were captured.
CD44^high cells were isolated by FACS (FaDu) and their growth was blocked by a Compound of the Invention (FIG. 5).

[6] = human, plasma, oral, 20 mg, Total Daily Dose 20 (mg), qd, patient plasma

CC(=O)c1cc2c(o1)C(=O)c1ccccc1C2=O [Compound 1, 2-acetylnaphtho[2,3-b]furan-4,9-dione]
adverse effects [1]: No signs of any adverse effects | β-catenin protein levels (β-catenin [2]): reduced | accumulation of β-catenin in cell nucleus in tumor tissues (IHC) (β-catenin [3]): effective in removing or preventing the accumulation of β-catenin in cell nucleus | clearance from the blood ([4]; 20 mg QD, humans): rapidly cleared from the blood | concentration of the compound in urine of the patient ([4]; 20 mg daily administration): surprisingly high concentration | AUC [4, 6]: 2.7 µM·h | Cmax [4, 6]: 490 nM | AUC ([4]; human, plasma, oral, 40 mg, Total Daily Dose 40 (mg), qd, patient plasma): 3.62 µM·h | AUC ([4]; human, plasma, oral, 80 mg, Total Daily Dose 80 (mg), qd, patient plasma): 13.3 µM·h | patients surviving beyond 25 weeks (colorectal cancer (CRC); CRC patients (N=13) with high levels of membranous β-catenin): none | patients surviving longer than 100 weeks (colorectal cancer (CRC); CRC patients (N=13) with high nuclear β-catenin levels before treatment): ~40% | patients surviving longer than 100 weeks (colorectal cancer (CRC); CRC patients (N=13) with high p-STAT3 levels before treatment): 40% | patients surviving beyond 100 weeks (colorectal cancer (CRC); CRC patients (N=13) with low or no p-STAT3 levels before treatment): 10% | Progression Free Survival (PFS), plasma concentrations above 2.0 uM for greater than 4 hours versus not reaching that exposure (colorectal cancer (CRC); CRC patients, FIG. 6A): statistically significant difference | survival, high level of p-STAT3 or NANOG versus low or negative levels (colorectal cancer (CRC); CRC patients, phase I archival tissue): trend of increased survival | survival HR, nuclear β-Catenin localization versus β-catenin localized to the cell membrane (colorectal cancer (CRC); CRC patients, phase I archival tissue, p value <0.001): 0.043 | Tmax ([5]; Patient 20, Fasting): 2 h | Tmax ([5]; Patient 20, With Food): 8 h | Tmax ([5]; Patient 20, With Milk): 2 h | Tmax ([5]; Patient 21, Fasting): 6 h | Tmax ([5]; Patient 21, With Food): 6 h | Tmax ([5]; Patient 21, With Milk): 6 h | Tmax ([5]; Patient 22, Fasting): 8 h | Tmax ([5]; Patient 22, With Food): 10 h | Tmax ([5]; Patient 22, With Milk): 8 h | Tmax ([5]; Patient 24, With Food): 10 h | Tmax ([5]; Patient 24, With Milk): 6.3 h | Tmax ([5]; Patient 27, With Food): 6 h | Tmax ([5]; Patient 27, With Milk): 0.5 h | Tmax ([5]; Patient 28, With Food): 10 h | Tmax ([5]; Patient 28, With Milk): 6 h | AUC0-24hrs Fold Change ([5]; with Milk versus Fasting): 1.56 and 1.55 | Cmax Fold Change ([5]; with Milk versus Fasting): 1.52 and 1.13 | CD44^high cells growth (CD44^high cells (FaDu)): blocked
